# Source: PubChem BioAssay AID330 (DTP/NCI, 2004)
# Values joined by “and” are separate entries in the source; they are usually repeats but may differ in a detail not shown here. Identical values can stand only once. Toxic doses and inconclusive results are not listed.
# Test system: P388 leukemia ip, CD2F1 mice, survival T/C
# Assay: NCI In Vivo Anticancer Drug Screen. Data for tumor model P388 Leukemia (intraperitoneal) in CD2F1 (CDF1) mice
# Details: endpoint: median survival time, higher = longer survival
# Method in brief: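 Mice carrying the transplanted tumor received test compound or vehicle. Survival was recorded in each group, and the value is the treated-group measurement divided by that of the vehicle-treated control group.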
# [1] = dose: 6.25 mg/kg/injection, schedule: Q01DX009 (ip), vehicle: saline with Tween-80
# [2] = dose: 12.5 mg/kg/injection, schedule: Q01DX009 (ip), vehicle: saline with Tween-80
# [3] = dose: 25.0 mg/kg/injection, schedule: Q01DX009 (ip), vehicle: saline with Tween-80
# [4] = dose: 50.0 mg/kg/injection, schedule: Q01DX005 (ip), vehicle: Klucel (hydroxypropylcellulose) (HPC)
# [5] = dose: 100.0 mg/kg/injection, schedule: Q01DX005 (ip), vehicle: Klucel (hydroxypropylcellulose) (HPC)
# [6] = dose: 200.0 mg/kg/injection, schedule: Q01DX005 (ip), vehicle: Klucel (hydroxypropylcellulose) (HPC)
smiles,measurement,setting,value
C=CC[n+]1cc2c3ccccc3c(N)cc2c2ccccc21,T/C,"dose: 1.56 mg/kg/injection, schedule: Q04DX003 (ip), vehicle: water",107 % of control
same,T/C,"dose: 3.13 mg/kg/injection, schedule: Q04DX003 (ip), vehicle: water",116 % of control
same,T/C,"dose: 6.25 mg/kg/injection, schedule: Q04DX003 (ip), vehicle: water",114 % of control
same,T/C,"dose: 12.5 mg/kg/injection, schedule: Q04DX003 (ip), vehicle: other",106 % of control
same,T/C,"dose: 12.5 mg/kg/injection, schedule: Q04DX003 (ip), vehicle: water",109 % of control
Cc1ccc(NCCNCCO)c2c(=O)c3cc(O)ccc3sc12,T/C,[1],150 % of control
same,T/C,[2],156 % of control and 169 % of control
same,T/C,[3],103 % of control
N#CC1=C(C#N)C(=O)C(Cl)=C(Cl)C1=O,T/C,"dose: 3.13 mg/kg/injection, schedule: Q01DX009 (ip), vehicle: saline",109 % of control
same,T/C,"dose: 6.25 mg/kg/injection, schedule: Q01DX009 (ip), vehicle: saline",118 % of control
same,T/C,"dose: 6.25 mg/kg/injection, schedule: Q04DX002 (ip), vehicle: saline",95 % of control
same,T/C,"dose: 6.25 mg/kg/injection, schedule: Q04DX003 (ip), vehicle: saline",95 % of control
same,T/C,"dose: 12.5 mg/kg/injection, schedule: Q01DX009 (ip), vehicle: saline",118 % of control
same,T/C,"dose: 12.5 mg/kg/injection, schedule: Q04DX002 (ip), vehicle: saline",109 % of control
same,T/C,"dose: 12.5 mg/kg/injection, schedule: Q04DX003 (ip), vehicle: saline",113 % of control
same,T/C,"dose: 25.0 mg/kg/injection, schedule: Q04DX002 (ip), vehicle: saline with Tween-80",117 % of control
same,T/C,"dose: 25.0 mg/kg/injection, schedule: Q04DX002 (ip), vehicle: saline",116 % of control
same,T/C,"dose: 62.5 mg/kg/injection, schedule: Q01DX005 (ip), vehicle: saline",95 % of control
same,T/C,"dose: 125.0 mg/kg/injection, schedule: Q01DX005 (ip), vehicle: saline",113 % of control
same,T/C,"dose: 250.0 mg/kg/injection, schedule: Q01DX005 (ip), vehicle: saline",94 % of control
COc1cc2c(c(OC)c1OC)-c1ccc(OC)c(=O)cc1C(NC(=O)CO)CC2 (stereo not drawn),T/C,"dose: 0.16 mg/kg/injection, schedule: Q01DX009 (ip), vehicle: Klucel (hydroxypropylcellulose) (HPC)",104 % of control and 111 % of control
same,T/C,"dose: 0.62 mg/kg/injection, schedule: Q01DX009 (ip), vehicle: Klucel (hydroxypropylcellulose) (HPC)",153 % of control and 157 % of control
C/C=C(\CCNCCCC)[Si](C)(C)C,T/C,"dose: 100.0 mg/kg/injection, schedule: Q04DX002 (ip), vehicle: saline",104 % of control
same,T/C,"dose: 200.0 mg/kg/injection, schedule: Q04DX002 (ip), vehicle: saline",101 % of control
CC(C)(C)OC(=O)N1CCc2c([nH]oc2=O)C1,T/C,"dose: 50.0 mg/kg/injection, schedule: Q01DX009 (ip), vehicle: suspension in saline",92 % of control
same,T/C,"dose: 100.0 mg/kg/injection, schedule: Q01DX009 (ip), vehicle: suspension in saline",90 % of control
same,T/C,"dose: 200.0 mg/kg/injection, schedule: Q01DX009 (ip), vehicle: suspension in saline",90 % of control
O=C(CCl)NCC1OC(n2cnc3c(=O)[nH]cnc32)C(O)C1O (stereo not drawn),T/C,"dose: 50.0 mg/kg/injection, schedule: Q01DX005 (ip), vehicle: saline",98 % of control
same,T/C,"dose: 100.0 mg/kg/injection, schedule: Q01DX005 (ip), vehicle: saline",96 % of control
same,T/C,"dose: 200.0 mg/kg/injection, schedule: Q01DX005 (ip), vehicle: saline",100 % of control
Cc1cc(N/N=C/c2ccc3c(c2)OCO3)c2cc3c(cc2n1)OCO3,T/C,"dose: 3.12 mg/kg/injection, schedule: Q01DX005 (ip), vehicle: Klucel (hydroxypropylcellulose) (HPC)",104 % of control
same,T/C,"dose: 6.25 mg/kg/injection, schedule: Q01DX005 (ip), vehicle: Klucel (hydroxypropylcellulose) (HPC)",95 % of control
same,T/C,"dose: 12.5 mg/kg/injection, schedule: Q01DX005 (ip), vehicle: Klucel (hydroxypropylcellulose) (HPC)",102 % of control and 95 % of control
same,T/C,"dose: 25.0 mg/kg/injection, schedule: Q01DX005 (ip), vehicle: Klucel (hydroxypropylcellulose) (HPC)",107 % of control and 114 % of control
same,T/C,[4],103 % of control
CCOC(=O)c1c[nH]c2ccc(N(CCCl)CCCl)cc12,T/C,"dose: 5.33 mg/kg/injection, schedule: Q04DX003 (ip), vehicle: saline with Tween-80",160 % of control
same,T/C,[1],150 % of control
same,T/C,"dose: 8.0 mg/kg/injection, schedule: Q04DX003 (ip), vehicle: saline with Tween-80",160 % of control
same,T/C,"dose: 12.0 mg/kg/injection, schedule: Q04DX003 (ip), vehicle: saline with Tween-80",170 % of control
same,T/C,[2],181 % of control
same,T/C,"dose: 18.0 mg/kg/injection, schedule: Q04DX003 (ip), vehicle: saline with Tween-80",185 % of control
same,T/C,[3],109 % of control
Nc1cc(Cl)ccc1-c1ccccc1,T/C,"dose: 100.0 mg/kg/injection, schedule: Q01DX009 (ip), vehicle: Klucel (hydroxypropylcellulose) (HPC)",95 % of control
same,T/C,"dose: 200.0 mg/kg/injection, schedule: Q01DX009 (ip), vehicle: Klucel (hydroxypropylcellulose) (HPC)",92 % of control
COc1cc2cnc(-c3ccncc3)c(N)c2cc1OC,T/C,"dose: 100.0 mg/kg/injection, schedule: Q04DX003 (ip), vehicle: suspension in saline",100 % of control
same,T/C,"dose: 200.0 mg/kg/injection, schedule: Q04DX003 (ip), vehicle: suspension in saline",93 % of control
same,T/C,"dose: 400.0 mg/kg/injection, schedule: Q04DX003 (ip), vehicle: suspension in saline",89 % of control
O=[N+]([O-])c1ccc(C2OC(c3ccncc3)=NC2CO)cc1 (stereo not drawn),T/C,"dose: 50.0 mg/kg/injection, schedule: Q01DX009 (ip), vehicle: saline",97 % of control
same,T/C,"dose: 100.0 mg/kg/injection, schedule: Q01DX009 (ip), vehicle: saline",91 % of control
same,T/C,"dose: 200.0 mg/kg/injection, schedule: Q01DX009 (ip), vehicle: saline",106 % of control
COc1cccc2c1CCC1=CC(=O)CCC12C (stereo not drawn),T/C,[4],102 % of control
same,T/C,[5],96 % of control
same,T/C,[6],93 % of control
COc1ccc(C(=O)CC(=O)CCC(=O)Nc2ccc(Cl)cc2Cl)cc1,T/C,"dose: 60.0 mg/kg/injection, schedule: Q01DX005 (ip), vehicle: saline with Tween-80",103 % of control
same,T/C,"dose: 120.0 mg/kg/injection, schedule: Q01DX005 (ip), vehicle: saline with Tween-80",101 % of control
same,T/C,"dose: 240.0 mg/kg/injection, schedule: Q01DX005 (ip), vehicle: saline with Tween-80",92 % of control
CCC/C=C1\OC(=O)c2ccccc21,T/C,[2],104 % of control
same,T/C,[3],100 % of control
same,T/C,"dose: 50.0 mg/kg/injection, schedule: Q01DX009 (ip), vehicle: saline with Tween-80",104 % of control
same,T/C,"dose: 100.0 mg/kg/injection, schedule: Q01DX009 (ip), vehicle: saline with Tween-80",100 % of control
same,T/C,"dose: 200.0 mg/kg/injection, schedule: Q01DX009 (ip), vehicle: saline with Tween-80",114 % of control
CC(O)c1nc2ncc(Br)cc2[nH]1 (stereo not drawn),T/C,"dose: 100.0 mg/kg/injection, schedule: Q01DX001 (ip), vehicle: saline with Tween-80",93 % of control
same,T/C,"dose: 200.0 mg/kg/injection, schedule: Q01DX001 (ip), vehicle: saline with Tween-80",99 % of control
same,T/C,"dose: 400.0 mg/kg/injection, schedule: Q01DX001 (ip), vehicle: saline with Tween-80",101 % of control
CC1=C2C(=C[C@@](C)(CO)[C@@H]2O)C(=O)[C@](C)(O)C12CC2,T/C,"dose: 0.05 mg/kg/injection, schedule: Q01DX010 (ip), vehicle: saline",109 % of control
same,T/C,"dose: 0.1 mg/kg/injection, schedule: Q01DX010 (ip), vehicle: saline",118 % of control
same,T/C,"dose: 0.8 mg/kg/injection, schedule: Q01DX010 (ip), vehicle: saline",95 % of control
c1coc(-c2cc(-c3cc(-c4ccco4)on3)no2)c1,T/C,"dose: 60.0 mg/kg/injection, schedule: Q01DX005 (ip), vehicle: Klucel (hydroxypropylcellulose) (HPC)",105 % of control
same,T/C,"dose: 120.0 mg/kg/injection, schedule: Q01DX005 (ip), vehicle: Klucel (hydroxypropylcellulose) (HPC)",100 % of control
same,T/C,"dose: 240.0 mg/kg/injection, schedule: Q01DX005 (ip), vehicle: Klucel (hydroxypropylcellulose) (HPC)",107 % of control
CC1CCCC2=C1C(O)c1c(N)cccc1C2O (stereo not drawn),T/C,[4],96 % of control
same,T/C,[5],101 % of control
same,T/C,[6],94 % of control
